# Values quoted from earlier work, collected in EP3251687A1, “BIOACTIVE PEPTIDES FOR BLOOD GLUCOSE CONTROL” (Centrum Innowacji Edoradca Sp. z o.o. Spolka Komandytowa, priority 2016, dated 2017).
# Tested on: carboxypeptidases A, B
substance,measurement,value
enterostatin,"resistance to digestion by carboxypeptidases A, B","resistant to digestion by carboxypeptidases A, B"
